Data taken from ChEMBL document CHEMBL1201862, “PubChem BioAssay data set” (2004).
Calls of active or inactive are those of the source.

Legend:
[1] = biological target: T1, Sentrin-specific protease 6 (Homo sapiens, UniProt Q9GZR1); assay type: functional;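 note: Luminescence-based dose-response confirmatory assay of SENP6 inhibition, following up an ultra-high-throughput screen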
T1 sequence (Q9GZR1 whole entry): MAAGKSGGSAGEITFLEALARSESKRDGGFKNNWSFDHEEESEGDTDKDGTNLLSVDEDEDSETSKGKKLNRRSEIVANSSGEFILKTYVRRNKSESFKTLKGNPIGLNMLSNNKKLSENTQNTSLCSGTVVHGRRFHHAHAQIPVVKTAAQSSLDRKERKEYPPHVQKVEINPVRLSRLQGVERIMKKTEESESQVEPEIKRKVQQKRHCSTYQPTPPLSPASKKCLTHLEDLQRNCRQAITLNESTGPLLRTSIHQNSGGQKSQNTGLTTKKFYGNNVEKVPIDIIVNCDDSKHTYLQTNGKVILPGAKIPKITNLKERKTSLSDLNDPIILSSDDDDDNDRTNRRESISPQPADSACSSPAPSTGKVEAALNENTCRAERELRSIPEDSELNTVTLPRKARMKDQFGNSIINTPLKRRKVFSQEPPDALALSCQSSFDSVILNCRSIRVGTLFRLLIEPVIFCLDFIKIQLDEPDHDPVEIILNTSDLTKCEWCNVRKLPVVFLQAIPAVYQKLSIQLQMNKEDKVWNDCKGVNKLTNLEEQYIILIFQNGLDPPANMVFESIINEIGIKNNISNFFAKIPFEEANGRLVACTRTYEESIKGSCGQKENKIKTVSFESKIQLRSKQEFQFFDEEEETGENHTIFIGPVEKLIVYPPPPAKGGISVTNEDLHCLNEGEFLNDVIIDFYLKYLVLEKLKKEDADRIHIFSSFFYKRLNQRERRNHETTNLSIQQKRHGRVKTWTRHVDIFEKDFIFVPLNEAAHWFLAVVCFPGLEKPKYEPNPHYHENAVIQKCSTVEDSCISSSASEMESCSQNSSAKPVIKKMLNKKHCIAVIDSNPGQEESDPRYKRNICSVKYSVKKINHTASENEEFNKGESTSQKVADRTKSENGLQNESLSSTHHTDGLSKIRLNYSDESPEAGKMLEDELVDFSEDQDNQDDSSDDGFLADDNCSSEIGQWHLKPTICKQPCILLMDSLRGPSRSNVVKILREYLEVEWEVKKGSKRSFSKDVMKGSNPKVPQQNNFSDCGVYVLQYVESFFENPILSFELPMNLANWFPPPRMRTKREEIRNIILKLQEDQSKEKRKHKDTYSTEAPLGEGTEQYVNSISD

[2] = biological target: T2, Sentrin-specific protease 8 (Homo sapiens, UniProt Q96LD8); assay type: functional;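 note: luminescence read-out of SENP8 inhibition, dose-response confirmation following an ultra-high-throughput screen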
T2 sequence (Q96LD8 whole entry): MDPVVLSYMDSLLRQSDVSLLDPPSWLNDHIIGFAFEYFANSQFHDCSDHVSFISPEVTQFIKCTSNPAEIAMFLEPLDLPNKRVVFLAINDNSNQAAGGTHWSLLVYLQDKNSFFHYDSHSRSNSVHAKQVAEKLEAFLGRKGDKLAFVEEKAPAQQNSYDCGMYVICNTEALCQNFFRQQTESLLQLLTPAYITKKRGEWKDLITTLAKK

[3] = biological target: T3, Sentrin-specific protease 7 (Homo sapiens, UniProt Q9BQF6); assay type: functional;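 note: Luminescence-based dose-response confirmation of ultra-high-throughput screening hits, measuring inhibition of SENP7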
T3 sequence (Q9BQF6 whole entry): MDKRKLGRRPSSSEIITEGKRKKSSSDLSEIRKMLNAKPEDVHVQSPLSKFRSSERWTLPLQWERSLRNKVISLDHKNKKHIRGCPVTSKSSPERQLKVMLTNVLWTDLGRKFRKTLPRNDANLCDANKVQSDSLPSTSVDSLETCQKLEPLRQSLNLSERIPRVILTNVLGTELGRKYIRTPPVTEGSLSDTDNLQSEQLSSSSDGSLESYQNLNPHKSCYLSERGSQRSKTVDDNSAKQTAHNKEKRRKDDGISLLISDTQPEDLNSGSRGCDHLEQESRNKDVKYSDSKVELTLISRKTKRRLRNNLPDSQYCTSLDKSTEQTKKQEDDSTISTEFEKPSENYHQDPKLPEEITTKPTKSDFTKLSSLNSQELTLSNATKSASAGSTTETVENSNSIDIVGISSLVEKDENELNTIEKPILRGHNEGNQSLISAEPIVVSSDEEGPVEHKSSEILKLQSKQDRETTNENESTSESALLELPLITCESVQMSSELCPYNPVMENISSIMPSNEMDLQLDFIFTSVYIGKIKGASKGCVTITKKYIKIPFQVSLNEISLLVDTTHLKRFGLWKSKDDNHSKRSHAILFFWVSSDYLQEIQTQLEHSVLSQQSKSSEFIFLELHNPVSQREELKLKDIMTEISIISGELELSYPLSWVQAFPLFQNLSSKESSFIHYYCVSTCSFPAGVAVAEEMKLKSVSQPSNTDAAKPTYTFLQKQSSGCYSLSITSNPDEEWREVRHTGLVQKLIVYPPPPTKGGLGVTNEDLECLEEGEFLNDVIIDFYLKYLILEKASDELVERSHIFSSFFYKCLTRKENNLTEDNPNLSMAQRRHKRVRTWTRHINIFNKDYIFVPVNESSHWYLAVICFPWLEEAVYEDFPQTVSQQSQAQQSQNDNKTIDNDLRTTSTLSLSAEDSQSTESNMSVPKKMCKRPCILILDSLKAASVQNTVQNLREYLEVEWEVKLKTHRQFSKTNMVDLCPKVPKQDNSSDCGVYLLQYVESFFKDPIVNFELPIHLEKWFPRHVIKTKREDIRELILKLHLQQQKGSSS

[4] = biological target: T4, Oxysterols receptor LXR-beta (Homo sapiens, UniProt P55055); assay type: functional, cell-based;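 note: agonist activity at LXR measured by a cell-based luminescence readout across a dose range, run as a counterscreen for daf-12 agonists; HEK293 cells with Gal4-LXR fusion and GAL4-driven luciferase reporter; potency for activation of Gal4-LXR reporter so compounds are agonists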
T4 sequence (P55055 whole entry): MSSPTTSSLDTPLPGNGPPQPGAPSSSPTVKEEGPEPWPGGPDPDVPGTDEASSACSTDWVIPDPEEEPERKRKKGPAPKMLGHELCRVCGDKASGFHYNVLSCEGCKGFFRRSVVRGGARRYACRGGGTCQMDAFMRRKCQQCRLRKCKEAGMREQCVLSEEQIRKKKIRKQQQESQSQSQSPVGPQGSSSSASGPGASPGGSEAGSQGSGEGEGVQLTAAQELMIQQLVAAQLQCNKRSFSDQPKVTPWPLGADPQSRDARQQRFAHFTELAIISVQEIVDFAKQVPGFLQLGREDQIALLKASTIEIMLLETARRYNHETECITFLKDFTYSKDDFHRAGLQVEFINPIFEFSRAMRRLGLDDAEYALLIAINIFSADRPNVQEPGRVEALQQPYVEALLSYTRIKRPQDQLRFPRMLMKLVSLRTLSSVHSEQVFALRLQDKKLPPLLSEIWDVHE

[5] = biological target: T5, Caspase-3 (Homo sapiens, UniProt P42574); assay type: functional;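 note: Dose-response selectivity test against caspase-3 for candidate inhibitors of sentrin-specific proteases (SENPs)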
T5 sequence (P42574 whole entry): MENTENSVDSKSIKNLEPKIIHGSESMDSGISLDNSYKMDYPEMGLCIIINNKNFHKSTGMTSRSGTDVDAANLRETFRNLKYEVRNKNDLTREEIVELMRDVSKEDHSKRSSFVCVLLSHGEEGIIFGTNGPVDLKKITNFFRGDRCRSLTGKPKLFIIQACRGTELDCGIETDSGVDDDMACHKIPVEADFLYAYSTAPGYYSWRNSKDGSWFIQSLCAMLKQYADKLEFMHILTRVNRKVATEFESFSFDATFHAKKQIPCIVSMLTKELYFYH

[6] = biological target: T6, Endoribonuclease toxin MazF (Escherichia coli K-12, UniProt P0AE70); experiment: substrate-only fluorescence increase artefacts – biochemical, single-stranded RNase substrate, counter-screen for MazEF activator project, dose response (AID 588502); assay type: functional
T6 sequence (P0AE70 whole entry): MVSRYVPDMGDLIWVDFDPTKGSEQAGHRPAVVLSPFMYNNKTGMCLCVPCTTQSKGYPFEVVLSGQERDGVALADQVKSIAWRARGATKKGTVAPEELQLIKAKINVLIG

[7] = biological target: T6, Endoribonuclease toxin MazF; experiment: activation of MazEF endoribonuclease cleavage – biochemical, fluorescence, single-stranded RNA substrate, uHTS hits, dose response (AID 588481); assay type: functional
[8] = biological target: T7, Corticotropin-releasing factor receptor 2/Corticotropin-releasing factor-binding protein (Homo sapiens, UniProt P24387+Q13324); experiment: activators of CRF receptor 2 with binding protein – uHTS hits, confirmation (AID 602473); assay type: functional; settings: read-out: EC50_Mean
T7 sequence (Q13324 whole entry): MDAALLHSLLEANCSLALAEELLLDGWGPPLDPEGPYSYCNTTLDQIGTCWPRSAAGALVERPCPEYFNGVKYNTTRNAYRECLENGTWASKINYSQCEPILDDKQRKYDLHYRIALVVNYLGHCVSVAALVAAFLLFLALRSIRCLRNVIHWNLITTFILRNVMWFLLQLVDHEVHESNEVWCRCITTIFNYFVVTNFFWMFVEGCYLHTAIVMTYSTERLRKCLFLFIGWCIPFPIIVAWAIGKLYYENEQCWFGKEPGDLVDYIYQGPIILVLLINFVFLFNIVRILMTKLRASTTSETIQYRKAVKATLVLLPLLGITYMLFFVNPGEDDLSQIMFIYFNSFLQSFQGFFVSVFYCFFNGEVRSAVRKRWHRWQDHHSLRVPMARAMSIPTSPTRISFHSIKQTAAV
T7 sequence (P24387 whole entry): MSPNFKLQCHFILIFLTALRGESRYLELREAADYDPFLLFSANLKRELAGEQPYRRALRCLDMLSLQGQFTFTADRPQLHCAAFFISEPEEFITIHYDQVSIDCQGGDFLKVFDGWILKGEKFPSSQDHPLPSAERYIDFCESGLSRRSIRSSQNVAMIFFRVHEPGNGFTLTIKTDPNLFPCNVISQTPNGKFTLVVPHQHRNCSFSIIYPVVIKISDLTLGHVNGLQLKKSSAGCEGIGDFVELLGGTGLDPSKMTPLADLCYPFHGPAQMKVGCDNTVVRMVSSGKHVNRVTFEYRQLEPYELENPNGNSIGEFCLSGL

[9] = biological target: T8, Short transient receptor potential channel 4 (Mus musculus, UniProt Q9QUQ5); experiment: block of DAMGO-driven TRPC4 calcium entry – cell-based, HEK293 TRPC4/mu-opioid, Fluo-4 calcium, dose response (AID 434942); assay type: functional;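 note: potency of inhibitors blocking the TRPC4 calcium response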
T8 sequence (Q9QUQ5 whole entry): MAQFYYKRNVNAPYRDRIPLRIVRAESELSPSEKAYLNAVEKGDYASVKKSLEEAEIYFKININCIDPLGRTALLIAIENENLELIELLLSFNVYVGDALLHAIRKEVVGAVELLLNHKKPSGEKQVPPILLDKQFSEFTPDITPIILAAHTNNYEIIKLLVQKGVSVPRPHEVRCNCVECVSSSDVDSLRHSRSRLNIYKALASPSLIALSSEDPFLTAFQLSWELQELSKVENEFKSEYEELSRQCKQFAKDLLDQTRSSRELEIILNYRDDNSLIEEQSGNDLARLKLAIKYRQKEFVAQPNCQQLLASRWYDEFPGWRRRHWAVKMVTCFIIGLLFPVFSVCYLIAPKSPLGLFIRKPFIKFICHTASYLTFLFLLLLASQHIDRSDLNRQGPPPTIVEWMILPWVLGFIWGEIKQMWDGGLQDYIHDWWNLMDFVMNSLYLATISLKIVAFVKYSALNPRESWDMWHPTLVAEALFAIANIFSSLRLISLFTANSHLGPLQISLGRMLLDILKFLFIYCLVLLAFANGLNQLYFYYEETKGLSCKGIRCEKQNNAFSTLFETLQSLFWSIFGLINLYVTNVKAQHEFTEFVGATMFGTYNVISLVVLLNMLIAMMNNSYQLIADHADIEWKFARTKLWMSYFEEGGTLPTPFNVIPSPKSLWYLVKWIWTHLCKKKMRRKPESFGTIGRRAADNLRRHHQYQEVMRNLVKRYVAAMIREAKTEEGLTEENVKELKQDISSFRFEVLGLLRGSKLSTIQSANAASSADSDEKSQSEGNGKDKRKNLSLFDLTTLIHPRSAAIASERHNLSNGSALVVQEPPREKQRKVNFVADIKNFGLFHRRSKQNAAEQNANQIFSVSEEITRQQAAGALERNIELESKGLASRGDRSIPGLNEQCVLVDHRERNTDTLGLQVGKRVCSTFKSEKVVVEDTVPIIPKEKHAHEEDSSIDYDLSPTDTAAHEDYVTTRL

[10] = test system: HEK293; experiment: EBV LMP1 TES2 canonical NF-kB signalling blockers – cell-based, HEK293, luciferase, cherry-pick, dose response (AID 588343); assay type: functional; settings: Homo sapiens

With `Cc1c(C(=O)Nc2ccccc2)csc1-c1ccccc1` the IC50 [1] was 6.64 µM (active), the IC50 [2] was 7.47 µM (active) and the IC50 [3] was 8.96 µM (active). The EC50 [4] was > 67.5 µM (inactive) and the IC50 [5] was 19.3 µM (active).

`CCN(CC)S(=O)(=O)c1ccc2oc(Nc3ccccc3)nc2c1` was tested, and the IC50 [1] was > 100 µM (inactive), the IC50 [2] was > 100 µM (inactive) and the IC50 [3] was 9.19 µM (active). For the same molecule, the IC50 [5] was 29.7 µM (active).

With `CCOc1ccc(S(=O)(=O)NN)cc1` the EC50 [6] was 23.9 µM (inactive) and the EC50 [7] was > 99 µM (inactive).

`CCCNC(=O)Cn1c(=O)/c(=C\c2ccc(-c3cccc([N+](=O)[O-])c3)o2)s/c1=C\C(=O)C(C)(C)C` was tested, and the EC50 [8] was > 53 µM (inactive), the EC50 [6] was > 99 µM (inactive) and the EC50 [7] was > 99 µM (inactive).

For `CCn1c2ccccc2c2cc(/C=N/NC(=O)c3cc(O)cc(O)c3)ccc21`, the EC50 [9] was 0.749 µM (active) and the AC50 [10] was 8.43 µM (active).
